Here are results for five compounds from patent publication US11566057B2, “Long-acting co-agonists of the glucagon and GLP-1 receptors” (Merck Sharp & Dohme Corp., priority 2017, dated 2023).

Read-outs that look alike come from different tables or passages of the source. Numbered stars: 1 amine (or outer) side, 2 acyl side, 3 side chain; on linkers, the order of the positions; unused ones are H or OH. Square brackets hold non-standard residues; d marks the D form. Side chains are listed from the residue outwards. Peptide text beside a SMILES is read from it. * marks the point of attachment. C20 diacid = O=C(O)CCCCCCCCCCCCCCCCCCC(=O)*; Phe(4-CH2NH2) = NCc1ccc(C[C@H](N)C(=O)O)cc1; C18 diacid = O=C(O)CCCCCCCCCCCCCCCCC(=O)*; γGlu = O=C(O)[C@H](CCC(=O)[*:2])N[*:1]; Met(O2) = CS(=O)(=O)CC[C@H](N)C(=O)O; αMeD = C[C@](N)(CC(=O)O)C(=O)O; AEEA = NCCOCCOCC(=O)O; Aib = CC(C)(N)C(=O)O

For assay [1], the target named is T1, human GLP1R (Homo sapiens, UniProt P43220).
T1 construct: expressed in transfected cells; growth medium holds Blasticidin and Hygromycin
T1 sequence (P43220 24-463): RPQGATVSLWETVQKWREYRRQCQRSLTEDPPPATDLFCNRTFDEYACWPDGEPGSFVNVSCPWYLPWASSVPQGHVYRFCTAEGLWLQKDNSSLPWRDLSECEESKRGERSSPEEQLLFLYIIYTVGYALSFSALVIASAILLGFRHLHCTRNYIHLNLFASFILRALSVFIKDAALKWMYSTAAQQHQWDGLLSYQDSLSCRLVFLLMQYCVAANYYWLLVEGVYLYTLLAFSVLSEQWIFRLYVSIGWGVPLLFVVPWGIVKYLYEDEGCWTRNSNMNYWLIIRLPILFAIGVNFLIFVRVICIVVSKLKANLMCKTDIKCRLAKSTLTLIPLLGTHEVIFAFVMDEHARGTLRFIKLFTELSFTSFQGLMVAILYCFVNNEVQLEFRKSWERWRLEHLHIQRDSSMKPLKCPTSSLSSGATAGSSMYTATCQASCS
Put plainly: cAMP activity assay at the GLP-1 receptor (GLP1R). It counts as cell-based. Summed up: (§1)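 Peptides serially diluted from DMSO (10 points) and added to frozen-stock cells bearing human GLP1R (10,000 cells/well) or GCGR (30,000 cells/well), 1 h at RT, dark. EC50 by four-parameter logistic fit of HitHunter cAMPXS luminescence, read following overnight RT incubation.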

Assay [2] deals with T2, human GCGR (Homo sapiens, UniProt P47871).
T2 construct: expressed in transfected cells; growth medium holds Blasticidin and Hygromycin
T2 sequence (P47871 26-477): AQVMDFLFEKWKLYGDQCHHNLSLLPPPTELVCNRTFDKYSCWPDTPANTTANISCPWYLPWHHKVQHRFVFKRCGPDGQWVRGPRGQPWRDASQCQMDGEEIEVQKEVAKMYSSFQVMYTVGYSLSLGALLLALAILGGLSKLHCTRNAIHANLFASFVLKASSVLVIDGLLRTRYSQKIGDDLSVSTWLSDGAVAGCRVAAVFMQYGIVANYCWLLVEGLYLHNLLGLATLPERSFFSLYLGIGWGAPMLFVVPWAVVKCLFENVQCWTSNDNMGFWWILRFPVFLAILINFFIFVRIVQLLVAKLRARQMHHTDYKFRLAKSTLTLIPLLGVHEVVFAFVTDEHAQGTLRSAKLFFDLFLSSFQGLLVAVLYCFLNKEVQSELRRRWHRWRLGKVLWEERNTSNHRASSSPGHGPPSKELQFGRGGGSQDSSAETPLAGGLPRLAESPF
The assay is described as follows: cAMP activity assay at the Glucagon receptor (GCGR). The format is cell-based. The following applies: for hGCGR/hGLP1R (hTone): ratio of GCGR EC50 to GLP1R EC50. Summed up: as §1

Setting [3] is: summary statement: EC50 at each of the glucagon and GLP-1 receptors, read-out: EC50 at the GLP-1 receptor.
Setting [4] is: cells expressing human GCGR, cAMP production, buffer with or without 20% human serum (not stated which), read-out: GCGR EC50 human.
The mark [5] stands for this setting: summary statement: EC50 at each of the glucagon and GLP-1 receptors, read-out: EC50 at the glucagon receptor.
Setting [6] is: cells expressing human GLP1R, cAMP production, buffer with or without 20% human serum (not stated which), read-out: GLP1R EC50 human.

Broadly, the EC50 is the concentration giving half of the maximal effect. With `CC(C)C[C@H](NC(=O)[C@H](Cc1ccc(O)cc1)NC(=O)[C@H](CCCCN)NC(=O)[C@H](CO)NC(=O)[C@H](Cc1ccc(O)cc1)NC(=O)[C@H](CC(=O)O)NC(=O)[C@H](CO)NC(=O)[C@@H](NC(=O)[C@H](Cc1ccccc1)NC(=O)[C@@H](NC(=O)CNC(=O)[C@H](CCC(N)=O)NC(=O)C(C)(C)NC(=O)[C@@H](N)Cc1c[nH]cn1)[C@@H](C)O)[C@@H](C)O)C(=O)N[C@@H](CC(=O)O)C(=O)N[C@@H](C)C(=O)N[C@@H](CCCNC(=N)N)C(=O)N[C@@H](C)C(=O)N[C@@H](C)C(=O)N[C@@H](Cc1ccc(CNC(=O)COCCOCCNC(=O)CC[C@H](NC(=O)CCCCCCCCCCCCCCCCC(=O)O)C(=O)O)cc1)C(=O)N[C@@H](CC(=O)O)C(=O)N[C@@H](Cc1ccccc1)C(=O)N[C@H](C(=O)N[C@@H](CCC(N)=O)C(=O)N[C@@H](Cc1c[nH]c2ccccc12)C(=O)N[C@@H](CC(C)C)C(=O)N[C@@H](CC(C)C)C(=O)N[C@@H](CC(=O)O)C(=O)N[C@H](C(N)=O)[C@@H](C)O)C(C)C` [TP635] (H-H[Aib]QGTFTSDYSKYLDARAA[Phe(4-CH2NH2)]([AEEA-γGlu-C18 diacid])DFVQWLLDT-NH2), the values for the EC50 in assay [1] (setting [3]), in assay [2] (setting [4]) and in assay [2] (setting [5]) were less than 5 nM, 0.46 nM and less than 5 nM, respectively. Also, the “hGCGR/hGLP1R (hTone)” value in assay [2] is on record as 0.2.

`CC(C)C[C@H](NC(=O)[C@H](Cc1ccc(O)cc1)NC(=O)[C@H](CCCCN)NC(=O)[C@H](CO)NC(=O)[C@H](Cc1ccc(O)cc1)NC(=O)[C@H](CC(=O)O)NC(=O)[C@H](CO)NC(=O)[C@@H](NC(=O)[C@H](Cc1ccccc1)NC(=O)[C@@H](NC(=O)CNC(=O)[C@H](CCC(N)=O)NC(=O)C(C)(C)NC(=O)[C@@H](N)Cc1c[nH]cn1)[C@@H](C)O)[C@@H](C)O)C(=O)N[C@@H](CC(=O)O)C(=O)N[C@@H](C)C(=O)N[C@@H](CCCNC(=N)N)C(=O)N[C@@H](C)C(=O)N[C@@H](C)C(=O)N[C@@H](CCCCNC(=O)COCCOCCNC(=O)COCCOCCNC(=O)COCCOCCNC(=O)CC[C@H](NC(=O)CCCCCCCCCCCCCCCCC(=O)O)C(=O)O)C(=O)N[C@@H](CC(=O)O)C(=O)N[C@@H](Cc1ccccc1)C(=O)N[C@H](C(=O)N[C@@H](CCC(N)=O)C(=O)N[C@@H](Cc1c[nH]c2ccccc12)C(=O)N[C@@H](CC(C)C)C(=O)N[C@@H](CCS(C)(=O)=O)C(=O)N[C@@](C)(CC(=O)O)C(=O)N[C@H](C(N)=O)[C@@H](C)O)C(C)C` [TP677] (H-H[Aib]QGTFTSDYSKYLDARAAK([AEEA-AEEA-AEEA-γGlu-C18 diacid])DFVQWL[Met(O2)][αMeD]T-NH2; N-terminus assumed): the EC50 in assay [1] (setting [6]) was 0.76 nM; in assay [1] (setting [3]), less than 5 nM; in assay [2] (setting [5]), less than 5 nM. Further, the “hGCGR/hGLP1R (hTone)” value in assay [2] is listed as 1.9.

Turning to `CC(C)C[C@H](NC(=O)[C@H](Cc1ccc(O)cc1)NC(=O)[C@H](CCCCN)NC(=O)[C@H](CO)NC(=O)[C@H](Cc1ccc(O)cc1)NC(=O)[C@H](CC(=O)O)NC(=O)[C@H](CO)NC(=O)[C@H](Cc1ccccc1)NC(=O)[C@H](Cc1ccccc1)NC(=O)[C@@H](NC(=O)CNC(=O)[C@H](CCC(N)=O)NC(=O)C(C)(C)NC(=O)[C@@H](N)Cc1c[nH]cn1)[C@@H](C)O)C(=O)N[C@@H](CC(=O)O)C(=O)N[C@@H](C)C(=O)N[C@@H](CCCNC(=N)N)C(=O)N[C@@H](C)C(=O)N[C@@H](C)C(=O)N[C@@H](CCCCNC(=O)COCCOCCNC(=O)COCCOCCNC(=O)CC[C@H](NC(=O)CCCCCCCCCCCCCCCCC(=O)O)C(=O)O)C(=O)N[C@@H](CC(=O)O)C(=O)N[C@@H](Cc1ccccc1)C(=O)N[C@H](C(=O)N[C@@H](CCC(N)=O)C(=O)N[C@@H](Cc1c[nH]c2ccccc12)C(=O)N[C@@H](CC(C)C)C(=O)N[C@@H](CCS(C)(=O)=O)C(=O)N[C@@H](CC(=O)O)C(=O)N[C@H](C(N)=O)[C@@H](C)O)C(C)C` [TP595] (H-H[Aib]QGTFFSDYSKYLDARAAK([AEEA-AEEA-γGlu-C18 diacid])DFVQWL[Met(O2)]DT-NH2; N-terminus assumed), the EC50 was greater than 20 nM in assay [1] (setting [6]), less than 5 nM in assay [1] (setting [3]) and less than 5 nM in assay [2] (setting [5]). In addition, the “hGCGR/hGLP1R (hTone)” value in assay [2] is reported as 0.2.

Consider `CC(C)C[C@H](NC(=O)[C@H](Cc1ccc(O)cc1)NC(=O)[C@H](CCCCN)NC(=O)[C@H](CO)NC(=O)[C@H](Cc1ccc(O)cc1)NC(=O)[C@H](CC(=O)O)NC(=O)[C@H](CO)NC(=O)[C@@H](NC(=O)[C@H](Cc1ccccc1)NC(=O)[C@@H](NC(=O)CNC(=O)[C@H](CCC(N)=O)NC(=O)C(C)(C)NC(=O)[C@@H](N)Cc1c[nH]cn1)[C@@H](C)O)[C@@H](C)O)C(=O)N[C@@H](CC(=O)O)C(=O)N[C@@H](C)C(=O)N[C@@H](CCCNC(=N)N)C(=O)N[C@@H](C)C(=O)N[C@@H](C)C(=O)N[C@@H](CCCCNC(=O)COCCOCCNC(=O)COCCOCCNC(=O)CC[C@H](NC(=O)CCCCCCCCCCCCCCCCCCC(=O)O)C(=O)O)C(=O)N[C@@](C)(CC(=O)O)C(=O)N[C@@H](Cc1ccccc1)C(=O)N[C@H](C(=O)N[C@@H](CCC(N)=O)C(=O)N[C@@H](Cc1c[nH]c2ccccc12)C(=O)N[C@@H](CC(C)C)C(=O)N[C@@H](CCS(C)(=O)=O)C(=O)N[C@@H](CC(=O)O)C(=O)N[C@H](C(N)=O)[C@@H](C)O)C(C)C` [TP594] (H-H[Aib]QGTFTSDYSKYLDARAAK([AEEA-AEEA-γGlu-C20 diacid])[αMeD]FVQWL[Met(O2)]DT-NH2; N-terminus assumed), for which the results for the EC50 in assay [1] (setting [3]), in assay [2] (setting [4]) and in assay [2] (setting [5]) were less than 5 nM, 4.95 nM and less than 5 nM, respectively. The “hGCGR/hGLP1R (hTone)” value in assay [2] was determined as 1.9.

`CC(C)C[C@H](NC(=O)[C@H](Cc1ccc(O)cc1)NC(=O)[C@H](CCCCN)NC(=O)[C@H](CO)NC(=O)[C@H](Cc1ccc(O)cc1)NC(=O)[C@H](CC(=O)O)NC(=O)[C@H](CO)NC(=O)[C@@H](NC(=O)[C@H](Cc1ccccc1)NC(=O)[C@@H](NC(=O)CNC(=O)[C@H](CCC(N)=O)NC(=O)C(C)(C)NC(=O)[C@@H](N)Cc1c[nH]cn1)[C@@H](C)O)[C@@H](C)O)C(=O)N[C@@H](CC(=O)O)C(=O)N[C@@H](C)C(=O)N[C@@H](CCCNC(=N)N)C(=O)N[C@@H](C)C(=O)N[C@@H](C)C(=O)N[C@@H](Cc1ccc(CNC(=O)COCCOCCNC(=O)COCCOCCNC(=O)CC[C@H](NC(=O)CCCCCCCCCCCCCCCCC(=O)O)C(=O)O)cc1)C(=O)N[C@@H](CC(=O)O)C(=O)N[C@@H](Cc1ccccc1)C(=O)N[C@H](C(=O)N[C@@H](CCC(N)=O)C(=O)N[C@@H](Cc1c[nH]c2ccccc12)C(=O)N[C@@H](CC(C)C)C(=O)N[C@@H](CCS(C)(=O)=O)C(=O)N[C@@](C)(CC(=O)O)C(=O)N[C@H](C(N)=O)[C@@H](C)O)C(C)C` [TP636] (H-H[Aib]QGTFTSDYSKYLDARAA[Phe(4-CH2NH2)]([AEEA-AEEA-γGlu-C18 diacid])DFVQWL[Met(O2)][αMeD]T-NH2; N-terminus assumed): the values for the EC50 in assay [1] (setting [6]), in assay [1] (setting [3]) and in assay [2] (setting [5]) were 0.52 nM, less than 5 nM and less than 5 nM, respectively. The “hGCGR/hGLP1R (hTone)” value in assay [2] came to 0.2.
